Results as given in patent publication US20030232868A1, “Cyclic carboxylic acids as integrin antagonists” (priority 2000, published 2003).

Columns and labels:
[1] = test system: adhesion of Ramos cells to VCAM-1; assay: Adhesion of Ramos cells to immobilized VCAM-1 (domains 1-3) (Ramos—VCAM-1 assay); type: cell-based; conditions: Homo sapiens, Ramos, 1 h
Text: In Vitro Assay: Adhesion of Jurkat/Ramos Cells to Immobilized VCAM-1 (Domains 1-3)
Preparation of VCAM-1 (Extracellular Domains 1-3)
Complementary DNA (cDNA) encoding 7 domain form of VCAM-1 (GenBank accession #M60335) was obtained using Rapid-Screen™ cDNA library panels (OriGene Technologies, Inc) at Takara Gene Analysis Center (Shiga, Japan). The primers used were 5′-CCAAGGCAGAGTACGCAAAC-3′ (sense) and 5′-TGGCAGGTATTATTAAGGAG-3′ (antisense). PCR amplification of the 3 domain VCAM-1 cDNA was perform using Pfu DNA polymerase (Stratagene) with the following sets of primers: (U-VCAMd1-3) 5′-CCATATGGTACCTGATCAATTTAAAATCGAGACCACCCCAGAA-3′; (L-VCAMd1-3) 5′-CCATATAGCAATCCTAGGTCCAGGGGAGATCTCAACAGTAAA-3′. PCR cycle was 94° C. for 45 sec. 55° C. for 45 sec, 72° C. for 2 min, repeating 15 cycles. After the purification of the PCR product, the fragment was digested with KpnI-AvrII. The digested fragment was ligated into pBluescript IISK(−) (Strategene), which was linearized by digesting with KpnI-XhoI. The ligation was followed by transformation to a Dam/Dcm methylase-free E. coli strain SCS110 (Strategene) to create the donor plasmid pHH7. To direct VCAM-1 molecule into the insect cell secretory pathway, the VCAM-1 coding sequence was fused to signal peptide sequence of honeybee melittin. The resulting melittin-VCAM fusion was placed in correct orientation to the baculovirus polyhedrin promoter. Baculovirus transfer vector containing first 3-domain form VCAM-1 (pH 10) was constructed by ligation of 0.9 kb fragment from AvrII/Klenow/BclI digests of pH 7 into SalI/Klenow/BamHI digests of pMelBacB Invitrogen). Recombinant baculovirus was generated by using Bac-N-Blue™ Transfection kit (Invitrogen) according to the manufacture's instruction. The recombinant virus was amplified by infection to High-Five™ insect cells for 5-6 days, and virus titer was determined by plaque assay.
High-Five™ insect cells were pelleted in a 225 ml conical tube by centrifugation at 1000 rpm for 5 min. After discarding the supernatant, the pellet was resuspended in 1.5×10^9 pfu (MOI=5) of high-titer virus solution, followed by incubation for 1.5 hours at room temperature. The cells were pelleted again and washed once in fresh Express Five™ serum free medium. The cells were pelleted again and finally, resuspended in 200 ml of fresh Express Five TM medium, transferred to a 1,000 ml shaker flask, and incubated in a shaker at 27° C., 130 rpm, for 48 hours before the culture supernatant was collected. The purification of 3-domain form of VCAM-1 from the culture supernatant was performed by one-step anion exchange chromatography. Protein concentration was determined by using Coomassie protein assay reagent (Pierce) according to the manufacture's instruction.
Preparation of VCAM-1 Coated Microtiter Plates
Recombinant human VCAM-1 (extracellular domains 1-3) was dissolved at 1.0 μg/1 ml in PBS. Each well of the microtiter plates (Nalge Nunc International, Fluoro-nunc Cert, 437958) was coated with 100 μl of substrate or for background control with buffer alone for 15 hours at 4 C. After discarding the substrate solution, the wells were blocked using 150 μl per well of block solution Kirkegaard Perry Laboratories, 50-61-01) for 90 minutes. The plate was washed with wash buffer containing 24 mM Tris-HCl (pH 7.4), 137 mM NaCl, […] and 2 MM MnCl2 just before addition of the assay.
In Vitro Assay using Ramos Cells
Preparation of Fluorescence Labeled Ramos Cells:
Ramos cells (American Type Culture Collection, Clone CRL-1596) were cultured in RPMI 1640 medium (Nikken Bio Medical Laboratory, CM1101) supplemented with 10% fetal bovine serum (Hyclone, A-1119-L), 100 U/ml penicilin (Gibco BRL, 15140-122) and 100 μg/ml streptomycin (Gibco BRL, 15140-122) in a humidified incubator at 37° C. with 5% CO2. […]

melting point [°C] | IC50 [1] [µM] | SMILES
255 to 257 | 2 to 10 | Cc1ccccc1NC(=O)Nc1ccc(CC(=O)N[C@@H](CC(C)C)C(=O)Nc2ccc(-c3nnn[nH]3)cc2)cc1 [Example 27]
185 to 188 | 2 to 10 | Cc1ccccc1NC(=O)Nc1ccc(CC(=O)N[C@@H](CC(C)C)C(=O)Nc2cc(Cl)c(C(=O)O)cc2Cl)cc1 [Example 50]
